Test results as given in patent publication US20050042661A1, “Use of novel compounds to release nucleotides from living cells” (priority 2003, published 2005).

Columns and labels:
[1] = tested on: whole blood diluted with physiological saline 200 times; assay: Extraction efficiency test of ATP, whole blood; assay type: cell-based; details: Whole blood diluted 200 times
Experimental: (§1) The extraction efficiency of the release reagent based on a quaternary ethoxylated amine and an ethoxylated amine mixture was also tested against the boiling tris-EDTA buffer and the perchloric acid extraction methods. The samples consisted of whole blood diluted with physiological saline 200 times, a suspension of E. coli bacteria in concentration of one million cells per milliliter, and a suspension of green algae, Chlorella sp. […]
(§2) Measurement of ATP by bioluminescence: 100 microliter aliquots of extracted sample solution were pipetted into transparent glass cuvettes and these were placed into the light-tight reaction chamber of a photon counter. […] The light emission was integrated for 10 seconds and the results read on the digital display as relative light units. The relative light units were converted to ATP by internal standardization whereby a known quantity of ATP standard was added into an aliquot of the extracted sample and measured as above. […] By subtracting the reading of the sample from that of the sample+added ATP standard a conversion factor for relative light units to ATP was calculated.

[2] = tested on: E. coli bacteria; assay: Extraction efficiency test of ATP, E. coli suspension; assay type: cell-based; details: one million cells per milliliter
Experimental: as §1, §2

For `[O-][Cl+3]([O-])([O-])O` [Perchloric acid method, perchloric acid], the ATP extraction efficiency [1] was 7% and the ATP extraction efficiency [2] was 3%.
